Tested on: MV-4-11 cells
Experiment: Gene expression microarray analysis (Affymetrix PrimeView) and GSEA
Type: cell-based, human
Set-up: RFU PODN (11730768_x_at) / Fold change /veh PODN (11730768_x_at) / RFU LINC00158 (11744669_a_at) / Fold change /veh LINC00158 (11744669_a_at) / RFU DUSP10 (11751237_a_at) / Fold change /veh DUSP10 (11751237_a_at) / RFU ID3 (11757404_x_at) / Fold change /veh ID3 (11757404_x_at) / RFU PLEKHG5 (11737974_s_at) / Fold change /veh PLEKHG5 (11737974_s_at) / RFU LRRC4B (11730491_at) / Fold change /veh LRRC4B (11730491_at) / RFU GIMAP4 (11747438_a_at) / Fold change /veh GIMAP4 (11747438_a_at) / RFU KRT8 (11758183_x_at) / Fold change /veh KRT8 (11758183_x_at) / RFU CNN1 (11734310_a_at) / Fold change /veh CNN1 (11734310_a_at) / RFU VPS37D (11726825_at) / Fold change /veh VPS37D (11726825_at) / RFU C10orf10 (11716522_x_at) / Fold change /veh C10orf10 (11716522_x_at) / RFU KIR2DL2 /// KIR2DL4 /// KIR2DL5A /// KIR2DL5B /// KIR2DS1 /// KIR2DS2 /// KIR2DS3 /// KIR2DS4 /// KIR3DL3 /// KIR3DL3 /// KIR3DS1 (11738374_at) / Fold change /veh KIR2DL2 /// KIR2DL4 /// KIR2DL5A /// KIR2DL5B /// KIR2DS1 /// KIR2DS2 /// KIR2DS3 /// KIR2DS4 /// KIR3DL3 /// KIR3DL3 /// KIR3DS1 (11738374_at) / RFU C1QL1 (11718748_at) / Fold change /veh C1QL1 (11718748_at) / RFU TMPRSS4 (11747572_a_at) / Fold change /veh TMPRSS4 (11747572_a_at) / RFU HAMP (11756126_x_at) / Fold change /veh HAMP (11756126_x_at) / RFU RNFT2 (11725882_a_at) / Fold change /veh RNFT2 (11725882_a_at) / RFU NR4A2 (11747474_a_at) / Fold change /veh NR4A2 (11747474_a_at) / RFU ABCC12 (11746883_a_at) / Fold change /veh ABCC12 (11746883_a_at) / RFU TMEM136 (11760407_x_at) / Fold change /veh TMEM136 (11760407_x_at) / RFU CLDN22 /// WWC2 (11732394_at) / Fold change /veh CLDN22 /// WWC2 (11732394_at) / RFU HLA-DPB1 (11760878_x_at) / Fold change /veh HLA-DPB1 (11760878_x_at) / RFU SPINT1 (11716480_a_at) / Fold change /veh SPINT1 (11716480_a_at) / RFU GAP43 (11754022_s_at) / Fold change /veh GAP43 (11754022_s_at) / RFU A4GNT (11735810_at) / Fold change /veh A4GNT (11735810_at) / RFU PRB3 (11715151_x_at) / Fold change /veh PRB3 (11715151_x_at) / RFU TUBB4B (11761932_at) / Fold change /veh TUBB4B (11761932_at) / RFU CAPN14 (11732068_a_at) / Fold change /veh CAPN14 (11732068_a_at) / RFU TMCC2 (11721928_a_at) / Fold change /veh TMCC2 (11721928_a_at) / RFU IRGQ (11745062_a_at) / Fold change /veh IRGQ (11745062_a_at) / RFU FAM174B (11720279_a_at) / Fold change /veh FAM174B (11720279_a_at) / RFU TMPRSS4 (11748680_a_at) / Fold change /veh TMPRSS4 (11748680_a_at) / RFU FAM212B (11763350_a_at) / Fold change /veh FAM212B (11763350_a_at) / RFU PLEKHG5 (11743358_a_at) / Fold change /veh PLEKHG5 (11743358_a_at) / RFU ZSCAN30 (11745921_a_at) / Fold change /veh ZSCAN30 (11745921_a_at) / RFU CMKLR1 (11741424_a_at) / Fold change /veh CMKLR1 (11741424_a_at) / RFU LOC101060620 /// MAPK8IP1 (11723275_at) / Fold change /veh LOC101060620 /// MAPK8IP1 (11723275_at) / RFU SPTSSB (11747773_x_at) / Fold change /veh SPTSSB (11747773_x_at) / RFU PRSS12 (11739890_at) / Fold change /veh PRSS12 (11739890_at) / RFU BIN1 (11741810_x_at) / Fold change /veh BIN1 (11741810_x_at) / RFU WNT11 (11732464_a_at) / Fold change /veh WNT11 (11732464_a_at) / RFU C10orf10 (11716521_a_at) / Fold change /veh C10orf10 (11716521_a_at) / RFU C5orf56 (11738089_at) / Fold change /veh C5orf56 (11738089_at) / RFU CYB561 (11721691_x_at) / Fold change /veh CYB561 (11721691_x_at) / RFU ANKRD19P (11752326_a_at) / Fold change /veh ANKRD19P (11752326_a_at) / RFU OR2T12 /// OR2T33 /// OR2T8 (11738714_s_at) / Fold change /veh OR2T12 /// OR2T33 /// OR2T8 (11738714_s_at) / RFU VCAN (11748164_a_at) / Fold change /veh VCAN (11748164_a_at) / RFU JSRP1 (11732532_at) / Fold change /veh JSRP1 (11732532_at) / RFU KRTAP10-11 (11738290_x_at) / Fold change /veh KRTAP10-11 (11738290_x_at) / RFU MYO3A (11730013_a_at) / Fold change /veh MYO3A (11730013_a_at) / RFU EBF3 (11725865_a_at) / Fold change /veh EBF3 (11725865_a_at) / RFU CAMK2N1 (11719241_x_at) / Fold change /veh CAMK2N1 (11719241_x_at) / RFU C5orf56 (11738088_a_at) / Fold change /veh C5orf56 (11738088_a_at) / RFU OLFML3 (11715873_a_at) / Fold change /veh OLFML3 (11715873_a_at) / RFU LOC100653217 /// NTM (11731650_a_at) / Fold change /veh LOC100653217 /// NTM (11731650_a_at) / RFU MAPK11 (11762145_a_at) / Fold change /veh MAPK11 (11762145_a_at) / RFU FIZ1 (11724087_x_at) / Fold change /veh FIZ1 (11724087_x_at) / RFU OASL (11726364_x_at) / Fold change /veh OASL (11726364_x_at) / RFU SOX15 (11748057_x_at) / Fold change /veh SOX15 (11748057_x_at) / RFU CD79A (11719716_a_at) / Fold change /veh CD79A (11719716_a_at) / RFU HIST1H1D (11736915_at) / Fold change /veh HIST1H1D (11736915_at) / RFU CASKIN2 (11723855_a_at) / Fold change /veh CASKIN2 (11723855_a_at) / RFU LOC730098 (11760151_x_at) / Fold change /veh LOC730098 (11760151_x_at) / RFU OR4N2 (11742367_at) / Fold change /veh OR4N2 (11742367_at) / RFU PRRT2 (11749266_a_at) / Fold change /veh PRRT2 (11749266_a_at) / RFU SNX32 (11753110_a_at) / Fold change /veh SNX32 (11753110_a_at) / RFU CDHR5 (11726645_a_at) / Fold change /veh CDHR5 (11726645_a_at) / RFU RCAN1 (11760418_a_at) / Fold change /veh RCAN1 (11760418_a_at) / RFU FAM167A (11723789_a_at) / Fold change /veh FAM167A (11723789_a_at) / RFU FAM26E (11764081_at) / Fold change /veh FAM26E (11764081_at) / RFU ISYNA1 (11749810_s_at) / Fold change /veh ISYNA1 (11749810_s_at) / RFU ACY1 (11761880_at) / Fold change /veh ACY1 (11761880_at) / RFU 11764098_at / Fold change /veh 11764098_at / RFU SAMD14 (11745864_x_at) / Fold change /veh SAMD14 (11745864_x_at) / RFU NPB (11741838_a_at) / Fold change /veh NPB (11741838_a_at) / RFU TMPRSS6 (11731388_a_at) / Fold change /veh TMPRSS6 (11731388_a_at) / RFU KRTAP10-2 (11738614_at) / Fold change /veh KRTAP10-2 (11738614_at) / RFU ARHGAP8 /// PRR5-ARHGAP8 (11727945_x_at) / Fold change /veh ARHGAP8 /// PRR5-ARHGAP8 (11727945_x_at) / RFU KRTAP5-7 /// NADSYN1 (11734609_at) / Fold change /veh KRTAP5-7 /// NADSYN1 (11734609_at) / RFU RASL12 (11751679_a_at) / Fold change /veh RASL12 (11751679_a_at) / RFU CDKN2B (11736163_a_at) / Fold change /veh CDKN2B (11736163_a_at) / RFU PRF1 (11729649_at) / Fold change /veh PRF1 (11729649_at) / RFU, ZNF638 /// ZNF638-IT1 / Fold change vs veh, ZNF638 /// ZNF638-IT1 / RFU, PANK3 / Fold change vs veh, PANK3 / RFU, SH3YL1 / Fold change vs veh, SH3YL1 / RFU, ZEB2 / Fold change vs veh, ZEB2 / RFU, NRIP1 / Fold change vs veh, NRIP1 / RFU, PTTG1IP / Fold change vs veh, PTTG1IP / RFU, CAPN2 / Fold change vs veh, CAPN2 / RFU, MED14 / Fold change vs veh, MED14 / RFU, SNORA58 / Fold change vs veh, SNORA58 / RFU, C1orf63 / Fold change vs veh, C1orf63 / RFU, LRRFIP1 / Fold change vs veh, LRRFIP1 / RFU, NDUFAF7 / Fold change vs veh, NDUFAF7 / RFU, SLC12A2 / Fold change vs veh, SLC12A2 / RFU, IBTK / Fold change vs veh, IBTK / RFU, ESF1 / Fold change vs veh, ESF1 / Fold change vs veh, TMEM50B / RFU, TAOK1 / Fold change vs veh, TAOK1 / RFU, ACBD3 / Fold change vs veh, ACBD3 / RFU, TMA16 / Fold change vs veh, TMA16 / RFU, RWDD3 / Fold change vs veh, RWDD3 / RFU, BCAT1 / Fold change vs veh, BCAT1 / RFU, EDEM3 / Fold change vs veh, EDEM3 / RFU, TMEM33 / Fold change vs veh, TMEM33 / RFU, WDR75 / Fold change vs veh, WDR75 / RFU, AHCTF1 / Fold change vs veh, AHCTF1 / RFU, TFRC / Fold change vs veh, TFRC / RFU, ZDHHC17 / Fold change vs veh, ZDHHC17 / RFU, NOM1 / Fold change vs veh, NOM1 / RFU, ARL8B / Fold change vs veh, ARL8B / RFU, ZBTB11 / Fold change vs veh, ZBTB11 / RFU, TAMM41 / Fold change vs veh, TAMM41 / RFU, KIAA1704 /// LOC100996395 / Fold change vs veh, KIAA1704 /// LOC100996395 / RFU, ING1 / Fold change vs veh, ING1 / RFU, TRMT61B / Fold change vs veh, TRMT61B / RFU, FUBP3 / Fold change vs veh, FUBP3 / RFU, TP53 / Fold change vs veh, TP53 / RFU, TNKS2 / Fold change vs veh, TNKS2 / RFU, ZFP14 / Fold change vs veh, ZFP14 / RFU, ACTR2 / Fold change vs veh, ACTR2 / RFU, PPP3R1 / Fold change vs veh, PPP3R1 / RFU, PIK3R1 / Fold change vs veh, PIK3R1 / RFU, HNRNPA1 / Fold change vs veh, HNRNPA1 / RFU, RNF170 / Fold change vs veh, RNF170 / RFU, ZNF28 / Fold change vs veh, ZNF28 / RFU, RNGTT / Fold change vs veh, RNGTT / RFU, OGT / Fold change vs veh, OGT / RFU, BRD1 / Fold change vs veh, BRD1 / RFU, MARS / Fold change vs veh, MARS / RFU, ZNF655 / Fold change vs veh, ZNF655 / RFU, FAHD1 / Fold change vs veh, FAHD1 / RFU, BDP1 / Fold change vs veh, BDP1 / RFU, LRRCC1 / Fold change vs veh, LRRCC1 / RFU, ARID1A / Fold change vs veh, ARID1A / RFU, ZNF146 / Fold change vs veh, ZNF146 / RFU, ZNF330 / Fold change vs veh, ZNF330 / RFU, GPN3 / Fold change vs veh, GPN3 / RFU, C9orf123 / Fold change vs veh, C9orf123 / RFU, N4BP2L2 / Fold change vs veh, N4BP2L2 / RFU, ARFIP1 / Fold change vs veh, ARFIP1 / RFU, FAM179B / Fold change vs veh, FAM179B / RFU, BCL10 / Fold change vs veh, BCL10 / RFU, UHRF1BP1L / Fold change vs veh, UHRF1BP1L / RFU, BET1 / Fold change vs veh, BET1 / RFU, CNOT2 / Fold change vs veh, CNOT2 / RFU, ZNF268 / Fold change vs veh, ZNF268 / Fold change vs veh, ZNF507 / RFU, DGCR2 / Fold change vs veh, DGCR2 / RFU, WDSUB1 / Fold change vs veh, WDSUB1 / Fold change vs veh, HSP90B1 /// MIR3652 / RFU, ADSS / Fold change vs veh, ADSS / RFU, GK / Fold change vs veh, GK / RFU, ZNF148 / Fold change vs veh, ZNF148 / RFU, TAF9 / Fold change vs veh, TAF9 / RFU, SLC1A5 / Fold change vs veh, SLC1A5 / RFU, SLMO2 / Fold change vs veh, SLMO2 / RFU, ABCC4 / Fold change vs veh, ABCC4 / RFU, LOC101060439 /// RAP1B / Fold change vs veh, LOC101060439 /// RAP1B / RFU, RFX7 / Fold change vs veh, RFX7 / RFU, GTPBP10 / Fold change vs veh, GTPBP10 / RFU, CNEP1R1 / Fold change vs veh, CNEP1R1 / RFU, BIVM-ERCC5 /// ERCC5 / Fold change vs veh, BIVM-ERCC5 /// ERCC5 / RFU, ILF3 / Fold change vs veh, ILF3 / RFU 11762660_at / Fold change /veh 11762660_at / RFU VCAN (11757783_s_at) / Fold change /veh VCAN (11757783_s_at) / RFU DDX43 (11728927_at) / Fold change /veh DDX43 (11728927_at) / RFU KRT8 (11758188_x_at) / Fold change /veh KRT8 (11758188_x_at) / RFU NKD1 (11759106_at) / Fold change /veh NKD1 (11759106_at) / RFU SRD5A1 (11742802_a_at) / Fold change /veh SRD5A1 (11742802_a_at) / RFU TPSAB1 /// TPSB2 (11721975_s_at) / Fold change /veh TPSAB1 /// TPSB2 (11721975_s_at) / RFU GSTM3 (11746129_a_at) / Fold change /veh GSTM3 (11746129_a_at) / RFU IL23R (11737362_x_at) / Fold change /veh IL23R (11737362_x_at) / RFU TMEM51 (11727254_a_at) / Fold change /veh TMEM51 (11727254_a_at) / RFU PIWIL2 (11732686_x_at) / Fold change /veh PIWIL2 (11732686_x_at) / RFU ORM1 (11744905_x_at) / Fold change /veh ORM1 (11744905_x_at) / RFU CCDC152 (11743942_at) / Fold change /veh CCDC152 (11743942_at) / RFU ECM1 (11717891_a_at) / Fold change /veh ECM1 (11717891_a_at) / RFU IL23R (11748794_a_at) / Fold change /veh IL23R (11748794_a_at) / RFU TNFAIP8L3 (11732012_x_at) / Fold change /veh TNFAIP8L3 (11732012_x_at) / RFU MBOAT4 (11741988_at) / Fold change /veh MBOAT4 (11741988_at) / RFU 11764193_at / Fold change /veh 11764193_at / RFU TMEM53 (11763286_at) / Fold change /veh TMEM53 (11763286_at) / RFU MAGEB2 (11727129_at) / Fold change /veh MAGEB2 (11727129_at) / RFU TMEM200A (11744735_a_at) / Fold change /veh TMEM200A (11744735_a_at) / RFU CCDC152 (11751479_a_at) / Fold change /veh CCDC152 (11751479_a_at) / RFU FAM211A (11726209_a_at) / Fold change /veh FAM211A (11726209_a_at) / RFU RGS16 (11746705_a_at) / Fold change /veh RGS16 (11746705_a_at) / RFU VCAN (11755009_s_at) / Fold change /veh VCAN (11755009_s_at) / RFU RHOB (11743442_s_at) / Fold change /veh RHOB (11743442_s_at) / RFU RGS16 (11720943_a_at) / Fold change /veh RGS16 (11720943_a_at) / RFU RGS16 (11720944_at) / Fold change /veh RGS16 (11720944_at) / RFU, VPS4B / Fold change vs veh, VPS4B / RFU, CREB1 / Fold change vs veh, CREB1 / RFU, DNAJC13 / Fold change vs veh, DNAJC13 / RFU, GNAQ / Fold change vs veh, GNAQ / RFU, CDK5R1 / Fold change vs veh, CDK5R1 / RFU, ZRANB3 / Fold change vs veh, ZRANB3 / RFU, CUL4A / Fold change vs veh, CUL4A / RFU, CCNY / Fold change vs veh, CCNY / RFU, UFL1 / Fold change vs veh, UFL1 / RFU, COG3 / Fold change vs veh, COG3 / RFU, DIAPH2 / Fold change vs veh, DIAPH2 / RFU, SKA2 / Fold change vs veh, SKA2 / RFU, AFF3 / Fold change vs veh, AFF3 / RFU, LMF1 / Fold change vs veh, LMF1 / RFU, IPO11 / Fold change vs veh, IPO11 / RFU, DFFB / Fold change vs veh, DFFB / RFU, FOXP1 / Fold change vs veh, FOXP1 / RFU, CARD8 / Fold change vs veh, CARD8 / RFU, STRN3 / Fold change vs veh, STRN3 / RFU, ADK / Fold change vs veh, ADK / RFU, RASSF2 / Fold change vs veh, RASSF2 / RFU, WIPF1 / Fold change vs veh, WIPF1 / RFU, LARP1B / Fold change vs veh, LARP1B / RFU, RASA1 / Fold change vs veh, RASA1 / RFU, RB1 / Fold change vs veh, RB1 / RFU, PPFIA1 / Fold change vs veh, PPFIA1 / RFU, MAT2A / Fold change vs veh, MAT2A / RFU, CCT5 / Fold change vs veh, CCT5 / RFU, WDR92 / Fold change vs veh, WDR92 / RFU, CUX1 / Fold change vs veh, CUX1 / RFU, TTC7A / Fold change vs veh, TTC7A / RFU, TMEM135 / Fold change vs veh, TMEM135 / RFU, DEPTOR / Fold change vs veh, DEPTOR / RFU, CPM / Fold change vs veh, CPM / RFU, DNAJB6 / Fold change vs veh, DNAJB6 / RFU, CACNA2D3 / Fold change vs veh, CACNA2D3 / RFU, DTX4 / Fold change vs veh, DTX4 / RFU, TFCP2 / Fold change vs veh, TFCP2 / RFU, GMCL1 /// GMCL1P1 / Fold change vs veh, GMCL1 /// GMCL1P1 / RFU, AEBP2 / Fold change vs veh, AEBP2 / RFU, SNHG1 /// SNORD22 /// SNORD25 /// SNORD26 /// SNORD27 /// SNORD28 /// SNORD29 /// SNORD31 / Fold change vs veh, SNHG1 /// SNORD22 /// SNORD25 /// SNORD26 /// SNORD27 /// SNORD28 /// SNORD29 /// SNORD31 / Fold change (Aza/veh), C12orf56 (ProbeSet 11735607_a_at) / Fold change (ACY-1035/veh), C12orf56 (ProbeSet 11735607_a_at) / Fold change (Aza/veh), FGFR1OP (ProbeSet 11751329_s_at) / Fold change (ACY-1035/veh), FGFR1OP (ProbeSet 11751329_s_at) / Fold change (Aza/veh), VPS36 (ProbeSet 11739960_a_at) / Fold change (ACY-1035/veh), VPS36 (ProbeSet 11739960_a_at) / RFU SYPL1 (11715823_x_at) / Fold change /veh SYPL1 (11715823_x_at) / RFU IGFBP7 (11715501_s_at) / Fold change /veh IGFBP7 (11715501_s_at) / RFU REEP3 (11722064_at) / Fold change /veh REEP3 (11722064_at) / RFU IGLL1 (11728026_x_at) / Fold change /veh IGLL1 (11728026_x_at): dose or concentration left out as unconfirmed
Conditions: MV-4-11 cells, 48 hours

Nc1ccc(-c2cccs2)cc1NC(=O)c1ccc2c(c1)cc(C1CC1)n2CCN1CCOCC1 [ACY-1035]
RFU MAPK11 (11762145_a_at): 21.16 RFU

— PMC5218480 (PLoS ONE, 2017)
